Results taken from patent US20220184172A1, “AMPK/CASPASE-6 AXIS CONTROLS LIVER DAMAGE IN NONALCOHOLIC STEATOHEPATITIS” (The Regents of the University of California, priority 2019, published 2022).

Legend:
[1] = tested on: procaspase-6 cleavage in primary hepatocytes; experiment: Procaspase-6 cleavage induced by TNFα and CHX in primary hepatocytes (IB); type: cell-based, mice; details: 40 μM pretreatment 1 hr, then 30 μg/ml CHX and 50 ng/ml TNFα 2 hrs
Source text: FIGS. 5A-5K. AMPK phosphorylates caspase-6 to inhibit its cleavage and activation. FIG. 5A. […] IB analysis of cell lysates. n=3. Mean±SD. *, P<0.05, two-way ANOVA. FIG. 5B. […] Cell lysates were subject to caspase-6 activity assay. Mean±SD. *, P<0.05. FIG. 5C. Caspase-6 Ser^257 locates within AMPK substrate motif. FIG. 5C. discloses SEQ ID NOS 57-63, respectively, in order of appearance. FIG. 5D. In vitro kinase assay using recombinant caspase-6, and recombinant AMPKα1β1γ1 or AMPKα2β1γ1 active kinase. FIG. 5E. Alignment of caspase-6 sequence. FIG. 5E. discloses SEQ ID NOS 64-67, respectively, in order of appearance. FIG. 5F. HEK293T cells overexpressing caspase-6-myc WT, S^257A, S^257D or S^257E mutant were treated with 10 μg/ml CHX and 25 ng/ml TNFα for 2 hrs. IB analysis of cell lysates. FIGS. 5G-5J. C57BL/6J mice were fed CD-HFD for 6 weeks, followed by intraperitoneally injection of 25 mg/kg A-769662 or vehicle daily for 2 weeks while continuous CD-HI-D. Mice were sacrificed 6 hrs after last injection. FIG. 5G. IB analysis of liver lysates. n=5. FIG. 5H. Liver lysates were subject to caspase-6 activity assay. n=7. FIG. 5I. Liver sections stained as indicated therein (aCasp6 and DAPI); in the merged image sections, the different stains correspond to the grayscale shades as indicated in the single stained images to the left. Scale bar=50 μm. […] Quantification of aCasp6 staining per field in FIG. 5I. n=7. […]

[2] = tested on: caspase-6 activity in primary hepatocytes; experiment: Caspase-6 activity induced by palmitic acid in primary hepatocytes; type: cell-based, mice; details: 40 μM pretreatment 1 hr, then 250 μM BSA-conjugated palmitic acid 2 hrs
Procedure: FIGS. 5A-5K. AMPK phosphorylates caspase-6 to inhibit its cleavage and activation. FIG. 5A. Primary hepatocytes were pretreated 40 μM A-769662 for 1 hr, then treated 30 μg/ml CHX and 50 ng/ml TNFα for 2 hrs. IB analysis of cell lysates. n=3. Mean±SD. *, P<0.05, two-way ANOVA. FIG. 5B. Primary hepatocytes were pretreated 40 μM A-769662 for 1 hr, then treated 250 μM BSA-conjugated palmitic acid (PA) for 2 hrs. Cell lysates were subject to caspase-6 activity assay. Mean±SD. *, P<0.05. FIG. 5C. Caspase-6 Ser^257 locates within AMPK substrate motif. FIG. 5C. discloses SEQ ID NOS 57-63, respectively, in order of appearance. FIG. 5D. In vitro kinase assay using recombinant caspase-6, and recombinant AMPKα1β1γ1 or AMPKα2β1γ1 active kinase. FIG. 5E. Alignment of caspase-6 sequence. FIG. 5E. discloses SEQ ID NOS 64-67, respectively, in order of appearance. FIG. 5F. HEK293T cells overexpressing caspase-6-myc WT, S^257A, S^257D or S^257E mutant were treated with 10 μg/ml CHX and 25 ng/ml TNFα for 2 hrs. IB analysis of cell lysates. FIGS. 5G-5J. […] Quantification of aCasp6 staining per field in FIG. 5I. n=7. […]
Cell/tissue was homogenized with lysis buffer. Caspase-6 activity was determined with Caspase-6 Colorimetric Assay Kit (Biovision, Cat. K115), according to manufacturer's instruction. […]

procaspase-6 cleavage [1]: significantly inhibited | induction of caspase-6 activity by PA [2]: inhibited
SMILES: N#Cc1c(O)c2c(-c3ccc(-c4ccccc4O)cc3)csc2[nH]c1=O [A-769662]
